Reference: patent US5229381A, “Substituted azetidinones as anti-inflammatory and antidegenerative agents” (Merck & Co., Inc., priority 1991, dated 1993)
Read-outs that look alike come from different tables or passages of the source.

Target: T1, human polymorphonuclear leukocyte elastase (Homo sapiens, UniProt P08246)
T1 construct: Crude extract of human polymorphonuclear leukocytes (PMN) containing elastase activity; endogenous in cells; host or cells: human polymorphonuclear leukocytes (crude extract)
T1 sequence (P08246 30-247 limits assumed): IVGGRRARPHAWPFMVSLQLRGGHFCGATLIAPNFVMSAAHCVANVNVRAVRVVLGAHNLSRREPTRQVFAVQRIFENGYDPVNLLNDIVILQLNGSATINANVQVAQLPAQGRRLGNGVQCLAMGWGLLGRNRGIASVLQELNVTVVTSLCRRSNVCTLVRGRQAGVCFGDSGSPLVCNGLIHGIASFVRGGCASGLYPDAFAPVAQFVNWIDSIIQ
Test: Inhibition of human polymorphonuclear leukocyte (granulocyte) elastase via hydrolysis of Boc-AAPAN or Boc-AAPVN
Type: biochemical
Conditions: (per mole per second), read-out: kobs/I, second order rate constant of inactivation of the enzyme
Protocol: Enzyme Assays for the Inhibition of Human Polymorphonuclear Leukocyte Elastase Via Hydrolysis of N-t-Boc-alanyl-alanyl-prolylalanine-p-nitroanilide (Boc-AAPAN) or N-t-Boc-alanyl-prolylvaline-p-nitroanilide (Boc-AAPVN) Reagent:
0.05M TES (N-tris[hydroxymethyl]methyl-2-amino-ethanesulfonic acid) Buffer, pH 7.5.
0.2 mM Boc-AAPAN or Boc-AAPVN.
To prepare substrate, the solid was first dissolved in 10.0 ml DMSO. Buffer at pH 7.5 was then added to a final volume of 100 ml.
Crude extract of human polymorphonuclear leukocytes (PMN) containing elastase activity.
Inhibitors (azetidinones) to be tested dissolved in DMSO just before use.
To 1.0 ml of 0.2 mM Boc-AAPAN in a cuvette, 0.01-0.1 ml of DMSO with or without inhibitor was added. After mixing, a measurement was taken at 410 mμ to detect any spontaneous hydrolysis due to presence of test compound. 0.05 Milliliters of PMN extract was then added and the ΔOD/min at 410 mμ was measured and recorded. Beckman model 35 spectrophotometer was used.
Results were also expressed as Ki, the micromolar concentration of the inhibitor (μM) giving 50% of the control enzyme activity; or as ^k obs/I which is the second order rate constant in per mole per second for inactivation of the enzyme.
The elastase activity in the crude PMN extract may vary from one preparation to another. A control of each new batch is run, and the volume added in the assay procedure is adjusted according to activity.

| SMILES | kinact/KI (pH 7.5, Table VI) | further results |
| --- | --- | --- |
| CCC1(CC)C(=O)N(C(=O)NCc2ccc(-c3ccccc3)cc2)C1OCC(N)=O (stereo not drawn) [Table III: OCH2 CONH2; CH2Ph-4-Ph] | – | kinact/KI (pH 7.5, Table III): 51800 M⁻¹ s⁻¹ |
| CCC1(CC)C(=O)N(C(=O)NCc2ccc(-c3ccccc3)cc2)C1OCC(=O)O (stereo not drawn) [Table III: OCH2 COOH; CH2 Ph-4-Ph] | – | kinact/KI (pH 7.5, Table III): 2900 M⁻¹ s⁻¹ |
| CCC(NC(=O)N1C(=O)C(CC)(CC)C1OCC(N)=O)c1ccccc1 (stereo not drawn) [Table III: OCH2CONH2; CH(Et)Ph] | – | kinact/KI (pH 7.5, Table III): 103000 M⁻¹ s⁻¹ |
| CCC(NC(=O)N1C(=O)C(CC)(CC)C1OCC(=O)O)c1ccccc1 (stereo not drawn) [Table III: OCH2COOH; CH(Et)Ph] | – | kinact/KI (pH 7.5, Table III): 5710 M⁻¹ s⁻¹ |
| CCC1(CC)C(=O)N(C(=O)NCc2ccccc2)C1n1ccccc1=O (stereo not drawn) [Table III: [2H-1-pyridonyl]; CH2 Ph] | – | kinact/KI (pH 7.5, Table III): 357 M⁻¹ s⁻¹ |
| CCC1C(=O)N(C(=O)N2CCc3ccccc3C2)C1Oc1ccc(C(=O)O)cc1 (stereo not drawn) [Table IV: C2 H5; H; O-(4-COOHPh); drawing 46] | – | kinact/KI (pH 7.5, Table IV): 10100 M⁻¹ s⁻¹ |
| CC[C@@H](NC(=O)N1C(=O)C(CC)(CC)[C@@H]1Oc1ccc(CC(=O)O)cc1)c1ccccc1 [Table V: 4-CH2 COOH; Et; H] | – | kinact/KI (pH 7.5, Table V): 140000 M⁻¹ s⁻¹ |
| CCC[C@@H](NC(=O)N1C(=O)C(CC)(CC)[C@@H]1Oc1ccc(CC(=O)O)cc1)c1ccccc1 [Table V: 4-CH2 COOH; nPr; H] | – | kinact/KI (pH 7.5, Table V): 227000 M⁻¹ s⁻¹ |
| CCC1(CC)C(=O)N(C(=O)N[C@H](COC)c2ccccc2)[C@H]1Oc1ccc(C(=O)O)cc1 [Table V: 4-COOH; CH2 OMe; H] | – | kinact/KI (pH 7.5, Table V): 6090 M⁻¹ s⁻¹ |
| CC[C@@H](NC(=O)N1C(=O)C(CC)(CC)[C@@H]1Oc1ccc(C(=O)O)cc1)c1ccccc1 [Table V: 4-COOH; Et; H] | – | kinact/KI (pH 7.5, Table V): 92000 M⁻¹ s⁻¹ |
| CCC1(CC)C(=O)N(C(=O)N[C@H](C)c2ccc(C)cc2)[C@H]1Oc1ccc(C(=O)O)cc1 [Table V: 4-COOH; Me; 4-Me] | – | kinact/KI (pH 7.5, Table V): 47000 M⁻¹ s⁻¹ |
| CCC1(CC)C(=O)N(C(=O)N[C@H](Cc2ccccc2)c2ccccc2)[C@H]1Oc1ccc(C(=O)O)cc1 [Table V: 4-COOH; PhCH2; H] | – | kinact/KI (pH 7.5, Table V): 25000 M⁻¹ s⁻¹ |
| CCC[C@@H](NC(=O)N1C(=O)C(CC)(CC)[C@@H]1Oc1ccc(C(=O)O)cc1)c1ccccc1 [Table V: 4-COOH; nPr; H] | – | kinact/KI (pH 7.5, Table V): 120000 M⁻¹ s⁻¹ |
| CC[C@@H](NC(=O)N1C(=O)C(CC)(CC)[C@@H]1Oc1cc(C)c(C(=O)O)c(C)c1)c1ccccc1 [Table VI: 3,5-Me2-4-COOH; Et; H] | 25000 M⁻¹ s⁻¹ | – |
| CC[C@@H](NC(=O)N1C(=O)C(CC)(CC)[C@@H]1Oc1cccc(CC(=O)O)c1)c1ccccc1 [Table VI: 3-CH2 COOH; Et; H] | 81000 M⁻¹ s⁻¹ | – |
| CCC1(CC)C(=O)N(C(=O)N[C@H](C)c2ccccc2)[C@H]1Oc1cccc(CC(=O)O)c1 [Table VI: 3-CH2 COOH; Me; H] | 5880 M⁻¹ s⁻¹ | – |
| CCC[C@@H](NC(=O)N1C(=O)C(CC)(CC)[C@@H]1Oc1ccc(CC(=O)O)c(Cl)c1)c1ccc(C)cc1 [Table VI: 3-Cl,4-CH2 COOH; nPr; 4-Me, (4S)-3,3-Diethyl-1-[(R)-α-n-propyl-(4-methyl)benzylaminocarbonyl]-4-[(4-carboxymethyl-3-chloro)phenoxy]azetidin-2-one] | 589000 M⁻¹ s⁻¹ | – |
| CCC[C@@H](NC(=O)N1C(=O)C(CC)(CC)[C@@H]1Oc1ccc(C(=O)O)c(Cl)c1)c1ccc(C)cc1 [Table VI: 3-Cl,4-COOH; nPr; 4-Me, (4S)-3,3-Diethyl-1-[(R)-α-n-propyl-(4-methyl)benzylaminocarbonyl]-4-[(4-carboxy-3-chloro)phenoxy]-azetidin-2-one] | 621000 M⁻¹ s⁻¹ | – |
| CCC[C@@H](NC(=O)N1C(=O)C(CC)(CC)[C@@H]1Oc1ccc(CC(=O)O)c(F)c1)c1ccc(C)cc1 [Table VI: 3-F,4-CH2 COOH; nPr; 4-Me, (4S)-3,3-Diethyl-1-[(R)-α-n-propyl-(4-methyl)benzylaminocarbonyl]-4-[(4-carboxymethyl-3-fluoro)phenoxy]azetidin-2-one] | 637000 M⁻¹ s⁻¹ | – |
| CCC[C@@H](NC(=O)N1C(=O)C(CC)(CC)[C@@H]1Oc1ccc(C(=O)O)c(F)c1)c1ccc(C)cc1 [Table VI: 3-F,4-COOH; nPr; 4-Me, (4S)-3,3-Diethyl-1-[(R)-α-n-propyl-(4-methyl)benzylaminocarbonyl]-4-[(4-carboxy-3-fluoro)phenoxy]-azetidin-2-one] | 464000 M⁻¹ s⁻¹ | – |
| CCC[C@@H](NC(=O)N1C(=O)C(CC)(CC)[C@@H]1Oc1ccc(CC(=O)O)c(C)c1)c1ccc(C)cc1 [Table VI: 3-Me,4-CH2 COOH; nPr; 4-Me] | 998000 M⁻¹ s⁻¹ | – |
| CCC[C@@H](NC(=O)N1C(=O)C(CC)(CC)[C@@H]1Oc1ccc(C(=O)O)c(C)c1)c1ccc(C)cc1 [Table VI: 3-Me,4-COOH; nPr; 4-Me, (4S)-3,3-diethyl-1-[(R)-α-n-propyl-(4-methyl)benzylaminocarbonyl]-4-[(4-carboxy-3-methyl)phenoxy]azetidin-2-one] | 186000 M⁻¹ s⁻¹ | – |
| CC[C@@H](NC(=O)N1C(=O)C(CC)(CC)[C@@H]1Oc1ccc(C(=O)O)c(O)c1)c1ccccc1 [Table VI: 3-OH-4-COOH; Et; H] | 125000 M⁻¹ s⁻¹ | – |

| SMILES | kinact/KI (pH 7.5, Table VI) | further results |
| --- | --- | --- |
| CCC1(CC)C(=O)N(C(=O)N[C@H](C)c2ccccc2)[C@H]1Oc1ccc(CCC(=O)O)cc1 [Table VI: 4-(CH2)2 COOH; Me; H] | 9480 M⁻¹ s⁻¹ | – |
| CCC1(CC)C(=O)N(C(=O)N[C@@H](COC)c2ccccc2)[C@H]1Oc1ccc(CC(=O)O)cc1 [Table VI: 4-CH2 COOH; CH2 OMe(R); H] | 11000 M⁻¹ s⁻¹ | – |
| CC[C@@H](NC(=O)N1C(=O)C(CC)(CC)[C@@H]1Oc1ccc(CC(=O)O)cc1)c1ccccc1 [Table VI: 4-CH2 COOH; Et; H, (4S)-3,3-diethyl-1-[(R)-α-ethylbenzyl-aminocarbonyl]-4-[(4-carboxymethyl)phenoxy]azetidin-2-one] | 126000 M⁻¹ s⁻¹ | – |
| CCC1(CC)C(=O)N(C(=O)N[C@H](C)c2ccccc2)[C@H]1Oc1ccc(CC(=O)O)cc1 [Table VI: 4-CH2 COOH; Me; H] | 8370 M⁻¹ s⁻¹ | – |
| C=CC[C@@H](NC(=O)N1C(=O)C(CC)(CC)[C@@H]1Oc1ccc(CC(=O)O)cc1)c1ccc(C)cc1 [Table VI: 4-CH2 COOH; allyl; 4-Me, (4S)-3,3-diethyl-1-[(R)-α-allyl-(4-methyl)benzyl-aminocarbonyl]-4-[(4-carboxymethyl)phenoxy]azetidin-2-one] | 664000 M⁻¹ s⁻¹ | – |
| CCC[C@@H](NC(=O)N1C(=O)C(CC)(CC)[C@@H]1Oc1ccc(CC(=O)O)cc1)c1ccc(C)cc1 [Table VI: 4-CH2 COOH; nPr; 4-Me, (4S)-3,3-diethyl-1-[(R)-α-n-propyl-(4-methyl)-benzylaminocarbonyl]-4-[(4-carboxymethyl)-phenoxy]azetidin-2-one] | 557000 M⁻¹ s⁻¹ | – |
| CCC[C@@H](NC(=O)N1C(=O)C(CC)(CC)[C@@H]1Oc1ccc(CC(=O)O)cc1)c1ccccc1 [Table VI: 4-CH2 COOH; nPr; H, (4S)-3,3-diethyl-1-[(R)-α-n-propylbenzylamino-carbonyl]-4-[(4-carboxymethyl)phenoxy]azetidin-2-one] | 188000 M⁻¹ s⁻¹ | – |
| CCC1(CC)C(=O)N(C(=O)N[C@H](C)c2ccccc2)[C@H]1Oc1ccc(C=CC(=O)O)cc1 [Table VI: 4-CHCHCOOH; Me; H] | 9100 M⁻¹ s⁻¹ | – |
| CC[C@@H](NC(=O)N1C(=O)C(CC)(CC)[C@@H]1Oc1ccc(C(=O)CCC(=O)O)cc1)c1ccccc1 [Table VI: 4-CO(CH2)2 COOH; Et; H] | 272000 M⁻¹ s⁻¹ | – |
| CCC1(CC)C(=O)N(C(=O)N[C@H](C)c2ccccc2)[C@H]1Oc1ccc(C(=O)CCC(=O)O)cc1 [Table VI: 4-CO(CH2)2COOH; Me; H] | 37100 M⁻¹ s⁻¹ | – |
| CCC1(CC)C(=O)N(C(=O)N[C@@H](COC)c2ccccc2)[C@H]1Oc1ccc(C(=O)O)cc1 [Table VI: 4-COOH; CH2 OMe(R); H] | 6980 M⁻¹ s⁻¹ | – |
| CCC1(CC)C(=O)N(C(=O)N[C@H](COC)c2ccccc2)[C@H]1Oc1ccc(C(=O)O)cc1 [Table VI: 4-COOH; CH2 OMe(s); H] | 6980 M⁻¹ s⁻¹ | – |
| CC[C@@H](NC(=O)N1C(=O)C(CC)(CC)[C@@H]1Oc1ccc(C(=O)O)cc1)c1ccc(-c2ccccc2)cc1 [Table VI: 4-COOH; Et; 4-Ph] | 26400 M⁻¹ s⁻¹ | – |
| CC[C@@H](NC(=O)N1C(=O)C(CC)(CC)[C@@H]1Oc1ccc(C(=O)O)cc1)c1ccccc1 [Table VI: 4-COOH; Et; H] | 76200 M⁻¹ s⁻¹ | – |
| CCC1(CC)C(=O)N(C(=O)N[C@@H](C)c2ccc(-c3ccccc3)cc2)[C@H]1Oc1ccc(C(=O)O)cc1 [Table VI: 4-COOH; Me(s); 4-Ph] | 49200 M⁻¹ s⁻¹ | – |
| CCC1(CC)C(=O)N(C(=O)N[C@H](C)c2ccc(-c3ccccc3Cl)cc2)[C@H]1Oc1ccc(C(=O)O)cc1 [Table VI: 4-COOH; Me; 4-(2'-ClPh)] | 245000 M⁻¹ s⁻¹ | – |
| CCC1(CC)C(=O)N(C(=O)N[C@H](C)c2ccc(C)cc2)[C@H]1Oc1ccc(C(=O)O)cc1 [Table VI: 4-COOH; Me; 4-Me] | 10700 M⁻¹ s⁻¹ | – |
| CCC1(CC)C(=O)N(C(=O)N[C@H](C)c2ccc(-c3ccccc3)cc2)[C@H]1Oc1ccc(C(=O)O)cc1 [Table VI: 4-COOH; Me; 4-Ph] | 74000 M⁻¹ s⁻¹ | – |
| CCC1(CC)C(=O)N(C(=O)N[C@H](C)c2ccccc2)[C@H]1Oc1ccc(C(=O)O)cc1 [Table VI: 4-COOH; Me; H] | 4020 M⁻¹ s⁻¹ | – |
| CCC1(CC)C(=O)N(C(=O)N[C@H](c2ccccc2)c2ccc(-c3ccccc3)cc2)[C@H]1Oc1ccc(C(=O)O)cc1 [Table VI: 4-COOH; Ph; 4-Ph] | 67800 M⁻¹ s⁻¹ | – |
| CCC1(CC)C(=O)N(C(=O)N[C@H](c2ccccc2)C(C)C)[C@H]1Oc1ccc(C(=O)O)cc1 [Table VI: 4-COOH; iPr(S); H] | 4740 M⁻¹ s⁻¹ | – |
| CCC1(CC)C(=O)N(C(=O)N[C@@H](c2ccccc2)C(C)C)[C@H]1Oc1ccc(C(=O)O)cc1 [Table VI: 4-COOH; iPr; H] | 177000 M⁻¹ s⁻¹ | – |
